# In PMC6199744, “Development of Chemical Proteomics for the Folateome and Analysis of the Kinetoplastid Folateome” (ACS Infectious Diseases, 2018):
# Tested on: L. major lysate proteins
# Test: Multitargeted bead mixture chemoproteomics, single concentration competition, proteome-wide
# Type: binding
# Settings: for fold change / fold change relative to vehicle control: vehicle control = 1; for fold change relative to vehicle control: competition with free ligand
smiles,measurement,setting,value
Nc1nc2cccc(-c3ccccc3)c2n1Cc1ccc(Cl)c(Cl)c1 [compound 3],fold change vs vehicle control,"protein LMJF.22.0730 HY[…], CONSERVED",1.03
same,fold change,protein LMJF.22.1460 I/6 AUTOANTIGEN-LIKE PROTEIN,1.02
same,fold change vs vehicle control,"protein LMJF.22.1540 ALANYL-TRNA SYNTHETASE, PUTATIVE",0.95
same,fold change vs vehicle control,"protein LMJF.23.0370 […] OXIDASE SUBUNIT 10, PUTATIVE",1.06
same,fold change,protein LMJF.23.0830 NA/H ANTIPORTER-LIKE PROTEIN,1.19
same,fold change,"protein LMJF.23.1020 HY[…], UNKNOWN FUNCTION",0.96
same,fold change,"protein LMJF.23.1220 T-COMPLEX PROTEIN 1, GAMMA SUBUNIT, PUTATIVE",1.01
same,fold change vs vehicle control,protein LMJF.24.0140 ANKYRIN/TPR REPEAT PROTEIN,0.99
same,fold change,protein LMJF.24.0280 DYNEIN INTERMEDIATE-CHAIN-LIKE PROTEIN,0.96
same,fold change,"protein LMJF.24.0770 MALIC ENZYME, PUTATIVE",0.99
same,fold change relative to vehicle control,"protein LMJF.24.1510 IGE-DEPENDENT HISTAMINE-RELEASING FACTOR, PUTATIVE",1.23
same,fold change vs vehicle control,"protein LMJF.24.1630, SUCCINATE DEHYDROGENASE FLAVOPROTEIN, PUTATIVE",0.9
same,fold change vs vehicle control,"protein LMJF.24.1840 LYSOPHOSPHOLIPASE, PUTATIVE",1.09
same,fold change relative to vehicle control,protein LMJF.24.2060 TRANSKETOLASE,1.1
same,fold change,"protein LMJF.24.2250 FATTY-ACID DESATURASE, PUTATIVE",0.99
same,fold change vs vehicle control,"protein LMJF.25.0120 ELECTRON TRANSFER FLAVOPROTEIN, PUTATIVE",0.93
same,fold change vs vehicle control,"protein LMJF.25.0260 DYNEIN LIGHT CHAIN 1, CYTOPLASMIC, PUTATIVE",1.01
same,fold change relative to vehicle control,protein LMJF.25.0910 C[…],1.18
same,fold change vs vehicle control,"protein LMJF.25.1180, ATPASE BETA SUBUNIT, PUTATIVE",1.09
same,fold change,"protein LMJF.25.1610 HY[…], CONSERVED",0.9
same,fold change,"protein LMJF.25.1620 HY[…], CONSERVED",1.16
same,fold change vs vehicle control,protein LMJF.26.1240 HEAT SHOCK PROTEIN 70-RELATED PROTEIN,0.94
same,fold change vs vehicle control,"protein LMJF.26.1710 […] OXIDASE SUBUNIT V, PUTATIVE",1.08
same,fold change vs vehicle control,"protein LMJF.26.1960 HY[…], CONSERVED",0.96
same,fold change vs vehicle control,"protein LMJF.26.2000 HY[…], CONSERVED",1.09
same,fold change vs vehicle control,"protein LMJF.27.0420 RIBOKINASE, PUTATIVE",1.13
same,fold change vs vehicle control,"protein LMJF.27.1060 CYSTEINE DESULFURASE, PUTATIVE",1.05
same,fold change,"protein LMJF.27.1310 ARGINYL-TRNA SYNTHETASE, PUTATIVE",0.9
same,fold change vs vehicle control,"protein LMJF.27.2400 HEAT SHOCK PROTEIN DNAJ, PUTATIVE",0.99
same,fold change vs vehicle control,"protein LMJF.28.0110 […] 3 SUBUNIT, PUTATIVE",0.99
same,fold change vs vehicle control,"protein LMJF.28.0930 HY[…], CONSERVED",1.07
same,fold change vs vehicle control,"protein LMJF.28.0950 HY[…], CONSERVED",1.01
same,fold change vs vehicle control,"protein LMJF.28.0980 P27 PROTEIN, PUTATIVE",1.09
same,fold change vs vehicle control,"protein LMJF.28.1950 X-PRO, DIPEPTIDYL-PEPTIDASE,SERINE PEPTIDASE, CLAN SC, FAMILY S15, PUTATIVE",1.06
same,fold change relative to vehicle control,"protein LMJF.28.2770 HEAT-SHOCK PROTEIN HSP70, PUTATIVE",0.99
same,fold change,"protein LMJF.29.0060 TRYPTOPHANYL-TRNA SYNTHETASE, PUTATIVE",1.05
same,fold change,protein LMJF.29.0820 CYSTEINE PEPTIDASE C (CPC),0.91
same,fold change relative to vehicle control,"protein LMJF.29.0850 HIGH MOBILITY GROUP PROTEIN HOMOLOG TDP-1, PUTATIVE",1.27
same,fold change vs vehicle control,protein LMJF.29.1160 TRYPAREDOXIN,0.99
same,fold change,"protein LMJF.29.1760 PAR[…] PROTEIN 1D, PUTATIVE",0.75
same,fold change vs vehicle control,"protein LMJF.29.1780 D[…] PROTEIN, PUTATIVE",1.05
same,fold change vs vehicle control,"protein LMJF.29.2240 AMINOPEPTIDASE, PUTATIVE",1.03
same,fold change,protein LMJF.29.2310 ENOYL-COA HYDRATASE/ISOMERASE-LIKE PROTEIN,0.98
same,fold change,protein LMJF.29.2860 40S RIBOSOMAL PROTEIN S19-LIKE PROTEIN,1.34
same,fold change vs vehicle control,"protein LMJF.30.0850 SURFACE PROTEIN AMASTIN, PUTATIVE",1.12
same,fold change,"protein LMJF.30.1250 PYRIDOXAL KINASE, PUTATIVE",0.82
same,fold change,protein LMJF.30.1940 SUCCINYL-COA:3-KETOACID-COENZYME A TRANSFERASE- LIKE PROTEIN,1.02
same,fold change vs vehicle control,protein LMJF.30.3190 3-HYDROXY-3-METHYLGLUTARYL-COA REDUCTASE,0.77
same,fold change vs vehicle control,protein LMJF.30.3520 S-ADENOSYL[…],1.03
same,fold change vs vehicle control,"protein LMJF.31.0440 CYTOSKELETON-[…] CAP5 5, PUTATIVE",0.97
same,fold change,"protein LMJF.31.1130 N-ACYL-L-AMINO ACID AMIDOHYDROLASE, PUTATIVE",0.9
same,fold change vs vehicle control,protein LMJF.31.1640 THIOLASE PROTEIN-LIKE PROTEIN,1.31
same,fold change,protein LMJF.31.1800 AMINO ACID PERMEASE,0.96
same,fold change,"protein LMJF.31.2250 3,2-TRANS-ENOYL-COA ISOMERASE, MIT[…], PUTATIVE",1
same,fold change vs vehicle control,"protein LMJF.31.2790 ADP-RI[…], PUTATIVE",1.03
same,fold change,protein LMJF.31.3130 […]-COA CARBOXYLASE BIOTINYLATED […]-LIKE PROTEIN,0.99
same,fold change,"protein LMJF.32.0010 HY[…], CONSERVED",0.78
same,fold change vs vehicle control,"protein LMJF.32.0400 ATP-DEPENDENT RNA HELICASE, PUTATIVE",1.02
same,fold change vs vehicle control,"protein LMJF.32.0520 PROFILIN, PUTATIVE",1.17
same,fold change,"protein LMJF.32.1000 […]-COMPLEX PROTEIN, PUTATIVE",0.92
same,fold change vs vehicle control,"protein LMJF.32.3010 HY[…], CONSERVED,LEUCINE-RICH REPEAT PROTEIN, PUTATIVE",1.47
same,fold change vs vehicle control,protein LMJF.32.3870 MYOSIN XXI,0.97
same,fold change vs vehicle control,"protein LMJF.33.0890, HY[…], CONSERVED",1.03
same,fold change vs vehicle control,"protein LMJF.33.1070 HY[…], UNKNOWN FUNCTION",1.02
same,fold change,"protein LMJF.33.1330 CYSTEINE CONJUGATE BETA-LYASE, AMINOTRANSFERASE- LIKE PROTEIN",1.06
same,fold change,"protein LMJF.33.1610 PEPTIDASE M20/M25/M40, PUTATIVE",0.91
same,fold change relative to vehicle control,"protein LMJF.33.1630 CYCLOPHILIN 4, PUTATIVE",0.93
same,fold change vs vehicle control,"protein LMJF.33.2300 UDP-GLC 4'-EPIMERASE, PUTATIVE",0.98
same,fold change vs vehicle control,"protein LMJF.33.2390 HEAT SHOCK PROTEIN, PUTATIVE",0.99
same,fold change,"protein LMJF.33.2410 HY[…], CONSERVED",1.06
same,fold change,"protein LMJF.33.3150 40S RIBOSOMAL PROTEIN S13, PUTATIVE",1.18
same,fold change,"protein LMJF.34.3500 RUVB-LIKE 1 DNA HELICASE, PUTATIVE",1.19
same,fold change,"protein LMJF.34.3670 VACUOLAR ATP SYNTHASE CATALYTIC SUBUNIT A, PUTATIVE",0.9
same,fold change,protein LMJF.34.3740 SERINE PALMITOYLTRANSFERASE-LIKE PROTEIN,0.95
same,fold change,"protein LMJF.34.4120 HY[…], CONSERVED",0.82
same,fold change vs vehicle control,"protein LMJF.34.4370 20S […] 7 SUBUNIT, (PUTATIVE)",1.2
same,fold change,"protein LMJF.35.0370 ATP-DEPENDENT DEAD-BOX RNA HELICASE, PUTATIVE",1.01
same,fold change vs vehicle control,"protein LMJF.35.1380, MIT[…], BETA SUBUNIT, PUTATIVE",1.16
same,fold change vs vehicle control,"protein LMJF.35.1410 THREONYL-TRNA SYNTHETASE, PUTATIVE",1.01
same,fold change vs vehicle control,"protein LMJF.35.1720 CYCLOPHILIN 14, PUTATIVE",1.09
same,fold change,"protein LMJF.35.2500 HY[…], CONSERVED",1.26
same,fold change,"protein LMJF.35.2730 ACYL-COA DEHYDROGENASE, PUTATIVE",1.14
same,fold change relative to vehicle control,"protein LMJF.35.3010 […],TRYPANOTHIONE-DEPENDENT […]",0.92
same,fold change vs vehicle control,"protein LMJF.35.3100 ATP-DEPENDENT RNA HELICASE, PUTATIVE",1.01
same,fold change vs vehicle control,protein LMJF.35.3340 6-phosphogluconate dehydrogenase,1.11
same,fold change,"protein LMJF.35.3700 GIM5A PROTEIN, PUTATIVE,[…] PROTEIN",0.85
same,fold change vs vehicle control,"protein LMJF.35.3840, […] 2 SUBUNIT, PUTATIVE",0.92
same,fold change vs vehicle control,"protein LMJF.35.3860 T-COMPLEX PROTEIN 1, ETA SUBUNIT, PUTATIVE",1
same,fold change,"protein LMJF.35.4550 HY[…], CONSERVED",1.56
same,fold change,protein LMJF.35.4770 CYCLOPHILIN 40,0.89
same,fold change,"protein LMJF.35.4850 […] 1 SUBUNIT, PUTATIVE",0.85
same,fold change,"protein LMJF.35.4860 HY[…], CONSERVED",0.98
same,fold change relative to vehicle control,"protein LMJF.35.5330 ISOPENTENYL-D[…]-ISOMERASE, PUTATIVE,ISOMERASE, PUTATIVE",1.32
same,fold change vs vehicle control,protein LMJF.36.0180 […] 2,1.05
same,fold change vs vehicle control,"protein LMJF.36.0620 HY[…], CONSERVED",1.06
same,fold change vs vehicle control,"protein LMJF.36.0990 40S RIBOSOMAL PROTEIN S10, PUTATIVE",1.12
same,fold change vs vehicle control,"protein LMJF.36.2020 CHAPERONIN HSP60, MIT[…]",0.88
same,fold change vs vehicle control,"protein LMJF.36.3460 HY[…], CONSERVED",1.04
same,fold change,"protein LMJF.36.3760 60S RIBOSOMAL PROTEIN L10A, PUTATIVE",1.19
same,fold change vs vehicle control,"protein LMJF.36.3840 GLYCYL TRNA SYNTHETASE, PUTATIVE",0.95
same,fold change vs vehicle control,"protein LMJF.36.4170 OXIDOREDUCTASE, PUTATIVE",0.93
same,fold change vs vehicle control,"protein LMJF.36.5010 40S RIBOSOMAL PROTEIN SA, PUTATIVE",1.04
same,fold change vs vehicle control,"protein LMJF.36.5620 ISOLEUCYL-TRNA SYNTHETASE, PUTATIVE",0.99
same,fold change vs vehicle control,protein LMJF.36.6430 PROTEIN TRANSPORT PROTEIN SEC23-LIKE PROTEIN,1.04
same,fold change,"protein LMJF.36.6760 HY[…], CONSERVED",0.97
same,fold change vs vehicle control,"protein LMJF.36.6910 T-COMPLEX PROTEIN 1, THETA SUBUNIT, PUTATIVE",1
same,fold change vs vehicle control,protein LMJF.36.6940 disulfide isomerase PDI,1.23
same,fold change vs vehicle control,"protein LMJF.[…] […] EXOPOLYPHOSPHATASE, PUTATIVE",0.81
